{"source": "paper PMC12383022", "about": "“Discovery of a Novel Antimicrobial Peptide from Paenibacillus sp. Na14 with Potent Activity Against Gram-Negative Bacteria and Genomic Insights into Its Biosynthetic Pathway” (Antibiotics, 2025)", "origin": "cited, not measured here", "key": {"E. coli ATCC 25922": {"system": "E. coli ATCC 25922", "conditions": "cited from earlier work"}, "P. aeruginosa LMG6395": {"system": "P. aeruginosa LMG6395", "conditions": "cited from earlier work"}, "MRSA": {"system": "MRSA", "conditions": "10× MIC; cited from earlier work"}, "K. pneumoniae LMG20218": {"system": "K. pneumoniae LMG20218", "conditions": "cited from earlier work"}, "MRSA ATCC 15975": {"system": "MRSA ATCC 15975", "conditions": "cited from earlier work"}}, "data": [{"substance": "brevibacillin 2V", "values": [{"measurement": "MIC, E. coli ATCC 25922", "setting": "E. coli ATCC 25922", "value": 16, "unit": "µg/mL"}, {"measurement": "MIC, P. aeruginosa LMG6395", "setting": "P. aeruginosa LMG6395", "value": 64, "unit": "µg/mL"}, {"measurement": "time to complete killing of MRSA", "setting": "MRSA", "value": "≤ 6", "unit": "h"}, {"measurement": "MIC, K. pneumoniae LMG20218", "setting": "K. pneumoniae LMG20218", "value": 32, "unit": "µg/mL"}, {"measurement": "MIC, MRSA ATCC 15975", "setting": "MRSA ATCC 15975", "value": 2, "unit": "µg/mL"}]}]}
